In patent publication US9370515B2, “Mixed lineage kinase inhibitors and method of treatments” (CALIFIA BIO, INC., priority 2013, dated 2016):
Entries after “also recorded” stand apart in the source; their conditions may differ. Where two headings read alike, the source gives them in different places.

Legend:
[1] = mice, Goodfellow et al 2013; cited from earlier work
[2] = Blood brain barrier penetration: standard murine pharmacokinetic model, plasma and brain concentrations; assay type: in vivo; conditions: mouse; brain concentration 3 hrs after single IV injection 10 mg/kg, CL57 BL/6 mice; read-out: Cbrain 3 hrs
From the text: Compounds disclosed herein may be evaluated in pharmacokinetic assays and models to determine absorption, distribution, metabolism, and excretion parameters. The choice and tailoring of in vitro and ex vivo assays and in vivo models will vary according to the route of administration/formulation, indication under study, properties of test compounds, etc., as well as according to such factors as costs, availability of technology and resources, etc. Such parameters are well known in the fields of pharmacology and drug development. It is within the capacity of one skilled in the art to design and carry out, such work, or to outsource it to a capable third party.
Several compounds disclosed herein were evaluated in a standard murine pharmacokinetic model. […] For ease of analysis compounds were dissolved in 5% DMSO, 40% PEG400, and […] to yield a nominal concentration of 2 mg/mL for intravenous administration. Compounds were administered via a single intravenous (IV) injection in CL57 BL/6 mice at 10 mg/kg in DMSO/PEG400/Saline solution. Three mice in each group were used for blood and brain collection at each time point. Blood samples (300 μL) were collected via the retro-orbital vein predose and at 30, 60 and 180 minutes postdose. Blood samples were placed into tubes containing sodium heparin and centrifuged under refrigerated conditions at 8000 rpm for 6 minutes to separate plasma from the samples. The brain of each animal was collected after the final blood collection. The whole tissue was harvested, excised and rinsed by saline, dried by filter paper, and then placed into one tube per tissue per animal. All samples were stored at −20° C. until bioanalysis. Compound concentrations in plasma and brain homogenate were determined using a high performance liquid chromatography/mass spectrometry (HPLC/MS/MS) methods.

[3] = system: E18 primary hippocampal neurons; test: Neuroprotection from HIV-1 Tat: hippocampal neurons in microfluidic chambers exposed to Tat-treated BV-2 microglia; assay type: cell-based; conditions: BV-2 microglia treated with 1 μg/ml HIV-1 Tat; for Axonogenesis in the presence of Tat-activated microglia: compound 100 nM, FIG. 1 arrows
Description: FIG. 2 is a graph illustrating the quantification of axon elimination in the presence of HIV tat and certain inhibitors including compounds of the present disclosure. FIG. 3 is a graph illustrating the quantification of axon length in the presence of HIV tat and certain inhibitors including compounds of the present disclosure. Neuroprotection from HIV-1 Tat: E18 primary hippocampal neurons were plated in microfluidic chambers for 7 days in vitro (DIV). These chambers contain a cell body compartment contiguous with a series of 10 um wide, 3 um high, 400 um long microgrooves through which axons grow into a second compartment, fluidically isolated by a hydrostatic pressure gradient. […] Chambers that were exposed to BV-2 microglia treated with Tat alone had almost their entire axonal field destroyed (FIG. 1, brightfield image). […] FIGS. 2 and 3 show quantifications of axon elimination in the presence of HIV tat and Compounds 169, 67, 68 and 175.

MLK-3 = MLK-3 (Homo sapiens, UniProt Q16584); test: Biochemical assay for the inhibition of kinase activity for MLK-3 (33P-ATP, HOTSPOT filter binding); conditions: activated MLK-3 20 nM, ATP 50 μM, myelin basic protein 20 μM, 20 minutes room temperature
Outline: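 Activated MLK-3 (20 nM) with myelin basic protein (20 μM) in 20 mM Hepes pH 7.5, MgCl2, EGTA, Brij35, BSA, Na3VO4, DTT, 1% DMSO. Started with 33P-ATP at 50 μM ATP, 20 min at room temperature; % activity by HOTSPOT filter binding.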

diverse set of kinases [4] = target: T1, diverse set of kinases (Homo sapiens, UniProt P24941); test: Protein kinase selectivity: IC50 against a diverse set of kinases, compared with URMC-099; assay type: biochemical; conditions: kinase CDK2
T1 construct: IC50 CDK2; other: kinase CDK2
From the text: (§1) Protein Kinase Selectivity: MLK-3 inhibitors previously reported in the literature are somewhat promiscuous and inhibit a large number of serine and threonine protein kinases. Compounds of the present invention that show potent inhibition on MLK-3 are very specific for MLK family kinases. […] Journal of Medicinal Chemistry, 2013.

diverse set of kinases [5] = target: T2, diverse set of kinases (Homo sapiens, UniProt O14920); test: as above; assay type: biochemical; conditions: kinase IKKb
T2 construct: IC50 IKKb; other: kinase IKKb
T2 sequence (O14920 1-756): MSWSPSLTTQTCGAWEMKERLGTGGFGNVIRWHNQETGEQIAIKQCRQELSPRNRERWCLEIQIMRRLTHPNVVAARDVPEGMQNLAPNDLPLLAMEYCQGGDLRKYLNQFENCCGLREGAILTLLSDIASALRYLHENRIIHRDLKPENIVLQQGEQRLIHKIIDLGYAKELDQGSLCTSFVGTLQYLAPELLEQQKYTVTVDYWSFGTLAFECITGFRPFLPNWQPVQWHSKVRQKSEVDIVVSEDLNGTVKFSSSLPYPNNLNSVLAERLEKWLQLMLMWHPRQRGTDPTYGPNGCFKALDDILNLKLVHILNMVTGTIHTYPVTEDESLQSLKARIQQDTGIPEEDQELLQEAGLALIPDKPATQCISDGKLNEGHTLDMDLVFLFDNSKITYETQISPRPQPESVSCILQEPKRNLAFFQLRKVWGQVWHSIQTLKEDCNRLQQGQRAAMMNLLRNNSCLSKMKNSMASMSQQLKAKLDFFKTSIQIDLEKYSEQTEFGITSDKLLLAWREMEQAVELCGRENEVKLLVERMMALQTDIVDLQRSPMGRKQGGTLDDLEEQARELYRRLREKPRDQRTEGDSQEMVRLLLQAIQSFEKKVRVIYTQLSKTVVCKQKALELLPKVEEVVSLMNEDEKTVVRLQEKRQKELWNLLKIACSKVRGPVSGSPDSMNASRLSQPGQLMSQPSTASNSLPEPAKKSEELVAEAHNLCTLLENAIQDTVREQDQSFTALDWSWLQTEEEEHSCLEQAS
From the text: as §1

diverse set of kinases [6] = target: diverse set of kinases (Homo sapiens, UniProt P00519, T315I); test: as above; assay type: biochemical; conditions: kinase ABL1, read-out: IC50 ABL1(T31SI)
From the text: as §1

diverse set of kinases [7] = target: T3, diverse set of kinases (Homo sapiens, UniProt P06213); test: as above; assay type: biochemical; conditions: kinase IR
T3 construct: IC50 IR; other: kinase IR
From the text: as §1

diverse set of kinases [8] = target: T4, diverse set of kinases (Homo sapiens, UniProt O15111); test: as above; assay type: biochemical; conditions: kinase IKKa
T4 construct: IC50 IKKa; other: kinase IKKa
T4 sequence (O15111 1-745): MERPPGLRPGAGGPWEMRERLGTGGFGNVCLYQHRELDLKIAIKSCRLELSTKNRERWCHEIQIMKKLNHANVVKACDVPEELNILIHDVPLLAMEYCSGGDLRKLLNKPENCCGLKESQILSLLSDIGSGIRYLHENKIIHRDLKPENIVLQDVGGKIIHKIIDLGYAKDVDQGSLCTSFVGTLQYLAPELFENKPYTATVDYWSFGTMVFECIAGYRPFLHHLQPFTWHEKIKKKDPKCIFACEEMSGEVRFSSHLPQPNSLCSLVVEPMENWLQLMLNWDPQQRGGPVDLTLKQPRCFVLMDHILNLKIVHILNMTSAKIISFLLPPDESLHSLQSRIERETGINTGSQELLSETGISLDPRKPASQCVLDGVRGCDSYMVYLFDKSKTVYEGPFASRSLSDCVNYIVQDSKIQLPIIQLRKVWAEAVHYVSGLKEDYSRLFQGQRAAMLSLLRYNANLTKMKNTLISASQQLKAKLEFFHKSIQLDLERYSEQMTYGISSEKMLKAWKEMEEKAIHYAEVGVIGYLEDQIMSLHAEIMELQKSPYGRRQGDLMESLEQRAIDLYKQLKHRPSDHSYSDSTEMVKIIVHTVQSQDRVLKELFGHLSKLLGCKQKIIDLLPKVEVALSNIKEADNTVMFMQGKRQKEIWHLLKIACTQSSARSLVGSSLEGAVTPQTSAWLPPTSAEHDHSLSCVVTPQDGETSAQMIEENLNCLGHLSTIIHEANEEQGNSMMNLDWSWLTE
From the text: as §1

T3 sequence (P06213 whole entry): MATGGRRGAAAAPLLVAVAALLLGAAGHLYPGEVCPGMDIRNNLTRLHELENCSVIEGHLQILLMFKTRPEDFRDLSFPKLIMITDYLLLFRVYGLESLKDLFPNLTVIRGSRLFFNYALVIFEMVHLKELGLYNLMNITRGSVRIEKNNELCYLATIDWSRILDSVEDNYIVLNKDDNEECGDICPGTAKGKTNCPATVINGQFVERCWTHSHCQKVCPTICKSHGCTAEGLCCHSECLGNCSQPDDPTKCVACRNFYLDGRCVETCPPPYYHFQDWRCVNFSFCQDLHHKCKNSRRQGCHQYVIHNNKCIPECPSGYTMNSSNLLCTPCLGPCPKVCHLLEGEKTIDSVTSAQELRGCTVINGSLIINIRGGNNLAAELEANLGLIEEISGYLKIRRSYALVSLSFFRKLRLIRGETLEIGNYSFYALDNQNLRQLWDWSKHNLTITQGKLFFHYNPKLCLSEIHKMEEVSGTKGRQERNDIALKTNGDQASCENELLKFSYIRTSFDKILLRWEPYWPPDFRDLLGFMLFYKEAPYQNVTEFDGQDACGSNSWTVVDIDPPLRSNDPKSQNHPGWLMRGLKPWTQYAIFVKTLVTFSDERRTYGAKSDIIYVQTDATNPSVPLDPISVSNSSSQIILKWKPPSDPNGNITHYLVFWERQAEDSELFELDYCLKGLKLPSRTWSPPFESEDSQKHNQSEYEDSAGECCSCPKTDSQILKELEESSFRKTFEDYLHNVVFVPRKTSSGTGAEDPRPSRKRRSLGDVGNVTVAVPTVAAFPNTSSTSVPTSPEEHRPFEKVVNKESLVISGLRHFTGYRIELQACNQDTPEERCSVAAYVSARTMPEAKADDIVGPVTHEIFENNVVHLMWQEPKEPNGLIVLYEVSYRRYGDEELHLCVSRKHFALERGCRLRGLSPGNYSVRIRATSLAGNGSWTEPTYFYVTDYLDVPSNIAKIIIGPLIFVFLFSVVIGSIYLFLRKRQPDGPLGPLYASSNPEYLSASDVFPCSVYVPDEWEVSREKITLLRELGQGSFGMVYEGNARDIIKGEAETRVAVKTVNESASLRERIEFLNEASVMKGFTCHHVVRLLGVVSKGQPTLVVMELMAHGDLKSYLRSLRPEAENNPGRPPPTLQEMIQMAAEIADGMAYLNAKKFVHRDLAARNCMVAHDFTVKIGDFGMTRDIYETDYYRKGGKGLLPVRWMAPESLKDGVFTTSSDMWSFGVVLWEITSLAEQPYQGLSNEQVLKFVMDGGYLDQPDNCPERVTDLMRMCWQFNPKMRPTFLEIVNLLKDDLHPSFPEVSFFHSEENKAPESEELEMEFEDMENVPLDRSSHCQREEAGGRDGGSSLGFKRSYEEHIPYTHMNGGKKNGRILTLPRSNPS
Chain of MLK-3 (Q16584 whole entry): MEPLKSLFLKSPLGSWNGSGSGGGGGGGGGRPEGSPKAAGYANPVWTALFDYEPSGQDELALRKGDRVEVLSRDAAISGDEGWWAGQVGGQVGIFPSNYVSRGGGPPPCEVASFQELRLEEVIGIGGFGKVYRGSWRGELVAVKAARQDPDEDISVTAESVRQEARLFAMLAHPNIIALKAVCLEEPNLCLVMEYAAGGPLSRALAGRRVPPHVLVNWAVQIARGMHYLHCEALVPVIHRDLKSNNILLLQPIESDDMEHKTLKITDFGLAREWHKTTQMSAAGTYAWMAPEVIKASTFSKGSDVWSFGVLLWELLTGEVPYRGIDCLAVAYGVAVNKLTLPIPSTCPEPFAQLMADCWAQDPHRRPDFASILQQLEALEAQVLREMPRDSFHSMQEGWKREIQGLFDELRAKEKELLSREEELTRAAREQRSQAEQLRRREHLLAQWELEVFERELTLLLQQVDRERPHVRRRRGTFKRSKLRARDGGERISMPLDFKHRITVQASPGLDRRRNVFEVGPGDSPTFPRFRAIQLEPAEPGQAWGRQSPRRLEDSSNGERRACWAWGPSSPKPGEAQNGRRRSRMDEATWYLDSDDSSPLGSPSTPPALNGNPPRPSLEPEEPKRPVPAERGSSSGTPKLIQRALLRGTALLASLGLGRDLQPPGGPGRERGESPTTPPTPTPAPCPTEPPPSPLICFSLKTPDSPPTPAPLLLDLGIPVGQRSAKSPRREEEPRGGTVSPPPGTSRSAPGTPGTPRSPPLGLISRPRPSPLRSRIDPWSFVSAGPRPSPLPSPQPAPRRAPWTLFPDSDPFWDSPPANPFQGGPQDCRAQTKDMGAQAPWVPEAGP

concentration at 3 h [2]	IC50 (MLK-3)	IC50 (diverse set of kinases [4])	IC50 (diverse set of kinases [5])	IC50 (diverse set of kinases [6])	IC50 (diverse set of kinases [7])	IC50 (diverse set of kinases [8])	IC50 (diverse set of kinases [6]; read-out: IC50 ABL1)	Structure (SMILES)	CNS / blood brain barrier penetration [1]	Axonogenesis in the presence of Tat-activated microglia ([3]; listed as Compound 68)	Axonogenesis in the presence of Tat-activated microglia ([3]; listed as compound 68)	Protection of the axon field ([3]; test compounds 100 nM, 18 hours)
								CCSCc1ccc2c(c1)c1c3c(c4c5cc(CSCC)ccc5n5c4c1n2[C@H]1C[C@](O)(C(=O)OC)[C@]5(C)O1)CNC3=O [CEP-1347]	very poor blood brain barrier penetration; also recorded: poor CNS penetration			
1550 ng/g	< 100 nM	> 10000 nM	> 10000 nM	> 10000 nM	> 10000 nM	> 10000 nM		COc1ccc(Nc2ccc3ncc(-c4cc5cccc(OC)c5s4)n3n2)cc1OC [Compound 68, 3-(7-methoxybenzo[b]thiophen-2-yl)-N-(3,4-dimethoxyphenyl)imidazo[1,2-b]pyridazin-6-amine]		continued axonogenesis	promoted continued axonogenesis	
		1180 nM	257 nM		200 nM	591 nM	3 nM	CN1CCN(Cc2ccc(-c3cnc4[nH]cc(-c5ccc6[nH]ccc6c5)c4c3)cc2)CC1 [URMC-099, reference compound]				protected the axon field
